This passage reports EC50 results from patent EP4745153A1, “GLP-1, GIP AND GCG RECEPTOR […] USE THEREOF” (Jiangsu Hengrui Pharmaceuticals Co., Ltd., priority 2023, dated 2025).

As a reminder, the EC50 is the concentration giving half of the maximal effect.

Starred links: 1 amine or outer side, 2 acyl side, 3 side chain; linkers in the order of their positions; H or OH if unused. Non-standard residues stand in square brackets, D forms with d. Residues, ends and D or L forms follow the SMILES beside them. Groups on a side chain read outwards from the residue. ξ: configuration not given here. *: point of attachment. C20 diacid = O=C(O)CCCCCCCCCCCCCCCCCCC(=O)*; γGlu = O=C(O)[C@H](CCC(=O)[*:2])N[*:1]; αMeK = C[C@](N)(CCCCN)C(=O)O; ξIva = CCC(C)(N)C(=O)O; AEEA = NCCOCCOCC(=O)O; Aib = CC(C)(N)C(=O)O

In the assay the target is T1, human GIPR (Homo sapiens, UniProt P48546).
T1 construct: expressed in transfected cells; host or cells: CHO-K1 clonal cell line
T1 sequence (P48546 22-466): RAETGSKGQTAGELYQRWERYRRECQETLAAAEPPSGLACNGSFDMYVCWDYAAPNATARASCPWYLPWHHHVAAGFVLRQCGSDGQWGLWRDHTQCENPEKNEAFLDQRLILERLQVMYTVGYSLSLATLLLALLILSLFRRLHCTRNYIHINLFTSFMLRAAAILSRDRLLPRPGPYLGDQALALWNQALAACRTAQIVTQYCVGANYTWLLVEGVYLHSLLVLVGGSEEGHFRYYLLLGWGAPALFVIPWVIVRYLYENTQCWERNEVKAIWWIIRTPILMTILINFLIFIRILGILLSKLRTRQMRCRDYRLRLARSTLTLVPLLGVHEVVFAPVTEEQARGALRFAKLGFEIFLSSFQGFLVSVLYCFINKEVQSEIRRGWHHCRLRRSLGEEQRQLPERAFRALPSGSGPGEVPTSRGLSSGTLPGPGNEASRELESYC
The experiment in a line: cAMP HTRF agonist activity assay in CHO-K1 cells expressing GIPR. Further: 5% FBS, 0.1% Casein. The class given is cell-based. To be noted: read-out: Activity against human GIPR (EC50 nM). How it is done: Functional activity was determined in CHO-K1 clonal cell lines expressing GIPR, GLP-1R, and GCGR. […] Each recipient cell (5000 cells/well) was added to an SV 96-well plate (Cisbio, 66PL96025) and incubated with the prepared polypeptide at 37°Cfor 30 min. The resulting increase in intracellular cAMP was quantitatively measured using the cAMP-GS dynamic HTRF assay kit (Cisbio, 62AM4PEJ). Briefly, the intracellular cAMP levels were determined by adding cAMP-d2 conjugate in cell lysis buffer, followed by the antibody anti-cAMP-Eu cryptate (also in cell lysis buffer).
Using the maximum response percentage vs. the added polypeptide concentration, the relative EC50 values were derived through nonlinear regression analysis and fitted to a four-parameter logarithmic equation. For specific data, refer to Tables 7-1 to 7-8 below. […]
A general note: Time-resolved FRET reads energy transfer from a long-lived donor to a nearby acceptor.
For `CC[C@H](C)[C@H](NC(=O)[C@](C)(CCCCN)NC(=O)[C@H](CO)NC(=O)[C@H](Cc1ccc(O)cc1)NC(=O)[C@H](CC(=O)O)NC(=O)[C@H](CO)NC(=O)[C@@H](NC(=O)[C@H](Cc1ccccc1)NC(=O)[C@@H](NC(=O)CNC(=O)[C@H](CCC(N)=O)NC(=O)C(C)(C)NC(=O)[C@@H](N)Cc1ccc(O)cc1)[C@@H](C)O)[C@@H](C)O)C(=O)N[C@@H](CC(C)C)C(=O)N[C@@H](CCC(=O)O)C(=O)N[C@@H](CCCCNC(=O)COCCOCCNC(=O)COCCOCCNC(=O)CC[C@H](NC(=O)CCCCCCCCCCCCCCCCCCC(=O)O)C(=O)O)C(=O)N[C@@H](CCCCN)C(=O)N[C@@H](C)C(=O)N[C@@H](C)C(=O)NC(C)(CC)C(=O)N[C@@H](CCC(=O)O)C(=O)N[C@@H](Cc1ccccc1)C(=O)N[C@H](C(=O)N[C@@H](CCC(=O)O)C(=O)N[C@@H](Cc1c[nH]c2ccccc12)C(=O)N[C@@H](CC(C)C)C(=O)N[C@@H](CC(C)C)C(=O)N[C@@H](C)C(=O)NCC(=O)NCC(=O)N1CCC[C@H]1C(=O)N[C@@H](CO)C(=O)N[C@@H](CO)C(=O)NCC(=O)N[C@@H](C)C(=O)N1CCC[C@H]1C(=O)N1CCC[C@H]1C(=O)N1CCC[C@H]1C(=O)N[C@@H](CO)C(N)=O)C(C)C` (stereo partly drawn) [Compound 0129] (H-Y[Aib]QGTFTSDYS[αMeK]ILEK([AEEA-AEEA-γGlu-C20 diacid])KAA[ξIva]EFVEWLLAGGPSSGAPPPS-NH2), the EC50 came to 0.002 nM.
Turning to `CC[C@H](C)[C@H](NC(=O)[C@H](CO)NC(=O)[C@H](Cc1ccc(O)cc1)NC(=O)[C@H](CC(=O)O)NC(=O)[C@H](CO)NC(=O)[C@@H](NC(=O)[C@H](Cc1ccccc1)NC(=O)[C@@H](NC(=O)CNC(=O)[C@H](CCC(N)=O)NC(=O)C(C)(C)NC(=O)[C@@H](N)Cc1c[nH]cn1)[C@@H](C)O)[C@@H](C)O)C(=O)N[C@@H](CC(C)C)C(=O)N[C@@H](CC(C)C)C(=O)N[C@@H](CCC(=O)O)C(=O)N[C@@H](CCCCNC(=O)COCCOCCNC(=O)COCCOCCNC(=O)CC[C@H](NC(=O)CCCCCCCCCCCCCCCCCCC(=O)O)C(=O)O)C(=O)N[C@@H](CCCCN)C(=O)N[C@@H](C)C(=O)N[C@@H](C)C(=O)NC(C)(C)C(=O)N[C@@H](CCC(=O)O)C(=O)N[C@@H](Cc1ccccc1)C(=O)N[C@H](C(=O)N[C@@H](CCC(=O)O)C(=O)N[C@@H](Cc1c[nH]c2ccccc12)C(=O)N[C@@H](CC(C)C)C(=O)N[C@@H](CC(C)C)C(=O)N[C@@H](C)C(=O)NCC(=O)NCC(=O)N1CCC[C@H]1C(=O)N[C@@H](CO)C(=O)N[C@@H](CO)C(=O)NCC(=O)N[C@@H](C)C(=O)N1CCC[C@H]1C(=O)N1CCC[C@H]1C(=O)N1CCC[C@H]1C(=O)N[C@@H](CO)C(N)=O)C(C)C` [Compound 0156], the EC50 worked out at 0.019 nM.
On to `CC[C@H](C)[C@H](NC(=O)[C@H](CO)NC(=O)[C@H](Cc1ccc(O)cc1)NC(=O)[C@H](CC(=O)O)NC(=O)[C@H](CO)NC(=O)[C@@H](NC(=O)[C@H](Cc1ccccc1)NC(=O)[C@@H](NC(=O)CNC(=O)[C@H](Cc1c[nH]cn1)NC(=O)C(C)(C)NC(=O)[C@@H](N)Cc1c[nH]cn1)[C@@H](C)O)[C@@H](C)O)C(=O)N[C@@H](CC(C)C)C(=O)N[C@@H](CC(C)C)C(=O)N[C@@H](CCC(=O)O)C(=O)N[C@@H](CCCCNC(=O)COCCOCCNC(=O)COCCOCCNC(=O)CC[C@H](NC(=O)CCCCCCCCCCCCCCCCCCC(=O)O)C(=O)O)C(=O)N[C@@H](CCC(N)=O)C(=O)N[C@@H](C)C(=O)N[C@@H](C)C(=O)N[C@@H](CCC(N)=O)C(=O)N[C@@H](CCC(=O)O)C(=O)N[C@@H](Cc1ccccc1)C(=O)N[C@H](C(=O)N[C@@H](CCC(=O)O)C(=O)N[C@@H](Cc1c[nH]c2ccccc12)C(=O)N[C@@H](CC(C)C)C(=O)N[C@@H](CC(C)C)C(=O)N[C@@H](C)C(=O)NCC(=O)NCC(=O)N1CCC[C@H]1C(=O)N[C@@H](CO)C(=O)N[C@@H](CO)C(=O)NCC(=O)N[C@@H](C)C(=O)N1CCC[C@H]1C(=O)N1CCC[C@H]1C(=O)N1CCC[C@H]1C(=O)N[C@@H](CO)C(N)=O)C(C)C` [Compound 0152] (H-H[Aib]HGTFTSDYSILLEK([AEEA-AEEA-γGlu-C20 diacid])QAAQEFVEWLLAGGPSSGAPPPS-NH2), for which the concentration for a half-maximal effect (EC50) came out at 0.009 nM.
